Data from patent US6753323B2, “Topical administration of amifostine and related compounds” (MedImmune Oncology, Inc., priority 1998, dated 2004).

How the values were obtained:
[1] = test system: inferior lip mucosa of the mice; assay: Radiation-induced mucositis in mice (inferior lip mucosa model, Parkins score); format: in vivo, C57BL/6 mice; conditions: for maximum grade of mucosal reactions: Parkins score
Description: (§1) The experimental murine model was developed by Parkins et al., Radiother. […] C57BL/6 mice 8-10 weeks old were used and fed with semi-liquid food. Unanesthetized mice were maintained in supine position and irradiated exclusively on the tip of the mouth. […] J. Radiat. Oncol. Biol. Phys., 8, 145-148 (1982). The irradiation was performed with an RT 250 Phillips apparatus, delivering 1.98 Gy/min (200 kV, 20 mA, filter of 0.2 mm Cu). During irradiation, a constant normobaric air renewal was maintained.
(§2) For the systemic applications, amifostine was dissolved in a […] solution 5 minutes before systemic IP injection of 200 to 400 mg/kg, which was administered 30 minutes before irradiation. A placebo solution of […] was used for a control group. For the topical applications, 50 mg of amifostine was dissolved in 1 mL of a solution containing 1% stearate, 5% H2O, and ammonia to adjust the pH of the solution to 8.8. The topical application was administered to the lip mucosa of the mice for a period of 30 minutes before each radiation session, and was maintained throughout the duration of irradiation. A single dose of 16.5 Gy, and a fractionated schedule delivering 24 Gy in 4 fractions over 2 days (with 8 hour intervals between fractions) were administered.
(§3) Four groups of eight mice were scored and weighed each day. Any mice having lost 30% or more of the initial weight was sacrificed. The effect of mucositis and weight loss were compared at the maximum of the acute reactions (day 11) among the different groups receiving or not receiving amifostine treatments, using the Mann and Whitney test.

[2] = as above; format: in vivo, C57BL/6 mice; conditions: C57BL/6, mouse, in vivo; IP, given before each fraction of radiation, mice; read-out: maximum tolerated dose
Description: as §1, §2, §3

[3] = test system: oral mucosa of mice; conditions: topical in carbowax to oral mucosa; cited from earlier work
[4] = test system: five compendial organisms; assay: Microbial growth inhibition, room temperature storage, summary over all test organisms; format: cell-based
Description: Amifostine was studied for its ability to inhibit microbial growth. Clear 10 cc vials, stoppers and seals were sterilized for use in the study. Two separate procedures were performed: a refrigerated storage study (2° to 8° C.) and a room temperature storage study (20° to 25° C.). For each test portion, positive controls were prepared for each organism by placing 9.5 mL sterile 0.9% sodium chloride into separate sterile vials and inoculating each with 10^3 to 10^4 of one of the test organisms. In addition, amifostine test specimens were prepared for each test portion by reconstituting six Ethyol® vials with 0.9% sodium chloride, the contents of each of these vials were then transferred to clear sterile vials to allow for easier visual examination. One vial was designated as a negative control, and each of the remaining five vials was inoculated with 10^3 to 10^4 of one of the test organisms. All vials were protected from light throughout the test to simulate the amber Ethyol® vial.
Positive controls, product test specimens, and a negative control were prepared. At this time, population counts were performed on each positive control. Population counts were also performed on positive controls and product test specimens at 24 and 48 hours. These samples were diluted with sterile water and plated in duplicate with a target of 30 to 300 colonies per plate. […]

[5] = test system: intestinal mucosa in patients; conditions: enema in Proctofoam, 100 to 450 mg, 45 minutes prior to pelvic radiation; cited from earlier work

For `NCCCNCCSP(=O)(O)O` [amifostine, S-2-(3-aminopropylamino)ethyl dihydrogen phosphorothioate], the “maximum grade of mucosal reactions” value ([1]; 200 mg/kg IP 30 min before irradiation, 24 Gy in 4 fractions over 2 days, day 11, ± standard error) was 3.5±0.2, the “maximum grade of mucosal reactions” value ([1]; 400 mg/kg IP 30 min before irradiation, 24 Gy in 4 fractions over 2 days, day 11, ± standard error) was 2.5±0.4 and the “grades of mucosal reactions compared to the control group” value ([1]; single dose of 16.5 Gy, IP and topical amifostine groups) was “significantly lower”. For the same compound, the “maximum grade of mucositis” value ([1]; topical 50 mg/mL solution pH 8.8 on lip mucosa 30 min before and during irradiation, 24 Gy in 4 fractions over 2 days, day 11, ± standard error) was 3.9±0.2, the MTD at 2 days [2] was 400 mg/kg and the “toxicity at the dosages tested” value [3] was “no toxicity observed”. For the same compound, the “concentration of viable microorganisms at 24 hours” value [4] was “reduced in four of the five compendial organisms” and the “rectal mucosal damage, test group vs control group” value [5] was “no significant differences”.
